pIC50: −log10 of the molar value.
Target: T1, ERα (Homo sapiens, UniProt P03372)
T1 construct: host or cells: MCF7
T1 sequence (P03372 1-595): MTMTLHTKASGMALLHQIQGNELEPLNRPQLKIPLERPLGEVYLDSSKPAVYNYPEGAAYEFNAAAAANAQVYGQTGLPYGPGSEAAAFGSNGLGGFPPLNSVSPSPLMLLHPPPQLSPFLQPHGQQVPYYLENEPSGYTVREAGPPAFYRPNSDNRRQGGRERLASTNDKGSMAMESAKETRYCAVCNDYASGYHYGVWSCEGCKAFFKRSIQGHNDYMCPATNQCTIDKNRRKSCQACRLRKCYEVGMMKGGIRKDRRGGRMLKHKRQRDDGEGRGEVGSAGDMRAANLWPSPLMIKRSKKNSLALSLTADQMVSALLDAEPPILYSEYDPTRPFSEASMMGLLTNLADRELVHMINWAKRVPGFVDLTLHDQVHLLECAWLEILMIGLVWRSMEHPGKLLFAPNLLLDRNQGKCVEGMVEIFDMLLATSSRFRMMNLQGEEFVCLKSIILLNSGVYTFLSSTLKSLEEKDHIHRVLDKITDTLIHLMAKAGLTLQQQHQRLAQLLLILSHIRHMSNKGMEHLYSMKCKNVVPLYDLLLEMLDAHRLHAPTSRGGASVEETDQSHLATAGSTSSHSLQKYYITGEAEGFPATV
Experiment: Estrogen receptor degradation activity: breast cancer cell ERα in cell western assay (MCF7 cells)
Assay type: cell-based
Conditions: for % Degradation At 0.3 μM: 4 hours, relative to fulvestrant 0.1 μM positive control; for DC50: read-out: Degradation IC50
Procedure, shortened: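 Compounds were applied to MCF7 cells in stripped-serum, phenol red-free medium for 4 h at final 0.3–0.0000018 μM, with fulvestrant (0.1 μM) as control. Value: IC50 (nM) for 50% ERα degradation.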

[1] = 4 hours post compound addition, concentration which degrades 50% of the estrogen receptor

Row | SMILES | % Degradation At 0.3 μM | DC50 [1] | pIC50 [1]
1 | Cl.O=C(O)c1ccc2c(c1)CCCC(C1CCC(F)(F)CC1)=C2c1ccc(CC2CN(CCCF)C2)cc1 [Example 4, 8-(4,4-Difluorocyclohexyl)-9-(4-((1-(3-fluoropropyl)azetidin-3-yl)methyl)phenyl)-6,7-dihydro-5H-benzo[7]Annulene-3-carboxylic Acid Hydrochloride] | 85% | 0.9 nM | 
2 | O=C(O)c1ccc2c(c1)CCCC(C1=CC3(C1)CC(F)(F)C3)=C2c1ccc(CC2CN(CCCF)C2)cc1 [Example 50, 8-(6,6-difluorospiro[3.3]hept-1-en-2-yl)-9-(4-((1-(3-fluoropropyl)azetidin-3-yl)methyl)phenyl)-6,7-dihydro-5H-benzo[7]annulene-3-carboxylic acid] | 88% | 10.5 nM | 
3 | CC1CCc2cc(C(=O)O)ccc2C(c2ccc(CC3CN(CCCF)C3)cc2)=C1c1cccc(C(F)(F)F)c1 (racemic) [Example 333, 9-(4-((1-(3-fluoropropyl)azetidin-3-yl)methyl)phenyl)-7-methyl-8-(3-(trifluoromethyl)phenyl)-6,7-dihydro-5H-benzo[7]annulene-3-carboxylic acid] | 87% | 0.4 nM | 
4 | O=C([O-])c1ccc2c(c1)CCCC(C1=C[C@@H]3CCC[C@@H]3C1)=C2c1ccc(CC2CN(CCCF)C2)cc1.[Na+] (relative stereo) [Example 299, sodium 9-(4-((1-(3-fluoropropyl)azetidin-3-yl)methyl)phenyl)-8-(cis-1,3a,4,5,6,6a-hexahydropentalen-2-yl)-6,7-dihydro-5H-benzo[7]annulene-3-carboxylate] | 90% | 0.7 nM | 

Second part, the compound after the results:

Row | % Degradation At 0.3 μM | DC50 [1] | pIC50 [1] | SMILES
5 | 95% | 1.6 nM |  | COc1ccc(C2=C(c3ccc(CC4CN(CCCF)C4)cc3)c3ccc(C(=O)O)cc3CCC2)cn1 [Example 18, 9-(4-((1-(3-fluoropropyl)azetidin-3-yl)methyl)phenyl)-8-(6-methoxypyridin-3-yl)-6,7-dihydro-5H-benzo[7]annulene-3-carboxylic acid]
6 | 91% | 1.6 nM |  | Cl.O=C(O)c1ccc2c(c1)CCC(c1ccc(Cl)cc1Cl)=C2c1ccc(CC2CN(CCCF)C2)cc1 [Example 262, 6-(2,4-Dichlorophenyl)-5-(4-((1-(3-fluoropropyl)azetidin-3-yl)methyl)phenyl)-7,8-dihydronaphthalene-2-carboxylic Acid Hydrochloride]
7 | 90% |  | 10.00 | O=C(O)c1ccc2c(c1)CCCC(c1cccc(Cl)c1C(F)(F)F)=C2c1ccc(CC2CN(CCCF)C2)cc1 [Example 226, 8-(3-chloro-2-(trifluoromethyl)phenyl)-9-(4-((1-(3-fluoropropyl)azetidin-3-yl)methyl)phenyl)-6,7-dihydro-5H-benzo[7]annulene-3-carboxylic acid]
8 | 84% | 0.8 nM |  | O=C(O)c1ccc2c(c1)CCCC(c1ccc(F)c(CC(F)(F)F)c1)=C2c1ccc(CC2CN(CCCF)C2)cc1 [Example 290, 8-(4-fluoro-3-(2,2,2-trifluoroethyl)phenyl)-9-(4-((1-(3-fluoropropyl)azetidin-3-yl)methyl)phenyl)-6,7-dihydro-5H-benzo[7]annulene-3-carboxylic acid]
9 | 86% | 6.2 nM |  | Cc1ccc(C2=C(c3ccc(CC4CN(CCCF)C4)cc3)c3cc(F)c(C(=O)O)c(F)c3CCC2)c(Cl)c1 [Example 217, 8-(2-chloro-4-methylphenyl)-2,4-difluoro-9-(4-((1-(3-fluoropropyl)azetidin-3-yl)methyl)phenyl)-6,7-dihydro-5H-benzo[7]annulene-3-carboxylic acid]
10 | 97% | 1.8 nM |  | O=C(O)c1ccc2c(c1Cl)CCCC(c1ccc(Cl)cc1Cl)=C2c1ccc(CC2CN(CCCF)C2)cc1 [Example 247, 4-chloro-8-(2,4-dichlorophenyl)-9-(4-((1-(3-fluoropropyl)azetidin-3-yl)methyl)phenyl)-6,7-dihydro-5H-benzo[7]annulene-3-carboxylic acid]

Reference: patent US12595230B2, “Substituted 6,7-dihydro-5H-benzo[7]annulene compounds and their derivatives, processes for their preparation and therapeutic uses thereof” (Sanofi, priority 2020, dated 2026)
